# Results as given in patent US4401677A, “Enkephalinase inhibitors” (E. R. Squibb & Sons, Inc., priority 1981, dated 1983).
# pIC50: −log10 of the molar value.
# Biological target: T1, enkephalinase purified from membrane fractions of sheep corpus striatum (Ovis aries, UniProt A0ACI6S0K5)
# T1 sequence (A0ACI6S0K5 2-750): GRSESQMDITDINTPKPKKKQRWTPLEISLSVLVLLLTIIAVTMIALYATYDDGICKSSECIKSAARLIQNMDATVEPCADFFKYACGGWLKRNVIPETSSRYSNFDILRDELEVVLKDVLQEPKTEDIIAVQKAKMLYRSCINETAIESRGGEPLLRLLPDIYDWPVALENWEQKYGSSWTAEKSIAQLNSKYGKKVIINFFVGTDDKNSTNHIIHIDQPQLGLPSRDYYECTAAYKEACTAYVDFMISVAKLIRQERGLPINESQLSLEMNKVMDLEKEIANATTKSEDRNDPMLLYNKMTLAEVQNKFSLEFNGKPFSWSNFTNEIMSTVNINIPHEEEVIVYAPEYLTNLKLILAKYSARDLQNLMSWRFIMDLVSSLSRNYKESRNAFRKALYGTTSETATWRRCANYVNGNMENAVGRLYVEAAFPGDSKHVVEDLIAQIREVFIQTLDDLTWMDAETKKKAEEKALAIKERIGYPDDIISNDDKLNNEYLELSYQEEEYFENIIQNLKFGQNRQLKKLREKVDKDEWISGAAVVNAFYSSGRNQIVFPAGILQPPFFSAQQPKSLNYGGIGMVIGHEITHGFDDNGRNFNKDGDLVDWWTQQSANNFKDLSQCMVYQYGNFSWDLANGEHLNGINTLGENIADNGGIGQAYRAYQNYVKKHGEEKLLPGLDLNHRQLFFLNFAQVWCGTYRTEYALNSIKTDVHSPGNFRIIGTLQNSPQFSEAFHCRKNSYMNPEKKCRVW
# Assay: inhibition of cleavage of [^3 H-Tyr^1, Leu^5 ]-enkephalin by purified enkephalinase (radiochromatographic method)
# Type: biochemical
# Settings: 70 nM substrate, pH 7.0, 15 minutes at 37°; called I50
# Protocol: Frozen sheep striatia were homogenized in 20 volumes of 50 mM Tris (i.e., 2-amino-2-hydroxymethyl-1,3-propanediol)-hydrochloric acid buffer, pH 7.7, and centrifuged at 37,000×g. for 15 minutes. The sedimented material (membrane fraction), after being washed three times by resuspension and recentrifugation, was solubilized by stirring with half the original volume of 50 mM Tris-hydrochloric acid buffer, pH 7.7, containing 1% Triton X-100 (i.e., polyethylene glycol p-isooctylphenyl ether) nonionic detergent, followed by centrifugation for 2 hours at 37,000×g. […] Protein was eluted from the column with a one liter gradient of 0-0.4 M sodium chloride in the same buffer mixture, with 8.7 ml. fractions being collected.
# Activity of the enzyme for purification and inhibitor studies was determined by the following radiochromatographic method. […] An aliquot of 0.01 ml. of acidified reaction mixture was spotted onto a Whatman LK 50 silica gel thin-layer chromatography plate along with the appropriate peptide standards. After development of the plate in a solvent composed of isopropanol:ethyl acetate:5% acetic acid (2:2:1), the spots corresponding to Tyr, Tyr-Gly, Tyr-Gly-Gly, and unreacted enkephalin (Tyr-Gly-Gly-Phe-Leu), as visualized with ninhydrin reaction, were scraped from the plate, and the incorporated radioactivity was counted in a liquid scintillation counter.
row,Structure (SMILES),pIC50
1,"CC(CS)C(=O)N[C@@H](CCCNC(=N)N)C(=O)O (mixture of isomers) [Ex. 1, N-(DL-3-Mercapto-2-methyl-1-oxopropyl)-L-arginine]",6.82
2,"CC(CS)C(=O)N[C@@H](Cc1c[nH]c2ccccc12)C(=O)O (mixture of isomers) [Ex. 3, N-(DL-3-Mercapto-2-methyl-1-oxopropyl)-L-tryptophan]",8.30
3,"CC(C)CC(CS)C(=O)N[C@@H](CCCNC(=N)N)C(=O)O (mixture of isomers) [Ex. 7, (±)-N^2-[2-(Mercaptomethyl)-4-methyl-1-oxopentyl]-L-arginine]",7.52

# Second part, the molecule after the results:
row,pIC50,Structure (SMILES)
1,7.07,"N=C(N)NCCC[C@H](NC(=O)C(CS)Cc1ccccc1)C(=O)O (mixture of isomers) [Ex. 2, N-[DL-2-(Mercaptomethyl)-1-oxo-3-phenylpropyl]-L-arginine]"
2,8.30,"CC(CS)C(=O)N[C@@H](Cc1ccc(O)c(O)c1)C(=O)O (mixture of isomers) [Ex. 5, 3-Hydroxy-N-(DL-3-mercapto-2-methyl-1-oxopropyl)-L-tyrosine]"
3,8.60,"CC(CS)C(=O)N[C@@H](Cc1ccc(O)cc1)C(=O)O (mixture of isomers) [Ex. 4, N-(DL-3-Mercapto-2-methyl-1-oxopropyl)-L-tyrosine]"
4,8.60,"C[C@H](CS)C(=O)N[C@@H](Cc1ccc(O)c(O)c1)C(=O)O [Ex. 6, 3-Hydroxy-N-(D-3-mercapto-2-methyl-1-oxopropyl)-L-tyrosine]"

# System: enkephalinase
# Assay: not given
# Settings: cited from earlier work
row,Structure (SMILES),inhibitor of enkephalinase in vitro
1,"O=C(O)CNC(=O)C(CS)Cc1ccccc1 (racemic) [thiorphan, [(DL-3-mercapto-2-benzylpropanoyl)]-glycine]",inhibitor of enkephalinase in vitro in nanomolar concentration
